These results are taken from patent US5962500A, “Insulin sensitivity with angiotensin II receptor blocking imidazoles” (priority 1994, dated 1999).

Where a name gives a salt, the structure may show the parent alone.

Experiment [1] concerns effects of AII on the blood pressure of pithed rats. The following applies: cited from earlier work.
For experiment [2], the system named is renal vasoconstrictor effect of NSAIDs. Conditions: cited from earlier work.
Another experiment deals with arterial pressure. Conditions: cited from earlier work.
The subject of a further experiment is Plasma renin activity. As to the kind of experiment: Plasma renin activity (PRA) in conscious dogs. The class given is in vivo, dog. The following applies: furosemide 10 mg/kg im at 18 and 2 hours before; three dogs; before furosemide 1.5±0.5. The protocol: (§1) The hypotensive effects of 2-butyl-4-chloro-1-[2'-(1H-tetrazol-5-yl)biphenyl-4-yl)methyl]-5-hydroxymethylimidazole sodium salt were compared before and after furosemide administration to conscious dogs. […] Plasma renin activity (PRA) in these animals was 1.5±0.5 ng AI/ml/hr. Four days later, furosemide was given to three of these dogs at 10 mg/kg im at 18 and 2 hours before the experiment and increased PRA to 19.9±7.2 ng AI/ml/hr. […] Thus a combined therapy of these two classes of drugs will be likely to increase the response rate to therapy among hypertensive patients.

For experiment [3], the system named is patients with severe hypertension. Briefly: Blood pressure and heart rate (oscillometric). The class given is in vivo, human. The following applies: after Losartan. The protocol:
(§2) At the time of the study only a three day wash-out period was allowed due to the severity of their hypertension.
(§3) A euglycemic glucose clamp procedure was performed three days after the initial screening, and after withdrawl from previous antihypertensive medications.
(§4) Fasting glucose was determined enzymatically, using a glucose dehydrogenase method and a Cobas Bio analyzer (Roche, Basel Switzerland). A Reflolux II (Mannheim Boehringer GmbH, Mannheim, Germany) was utilized to measure glucose concentration during the glucose clamp procedure (within run coefficient of variation <3% in our laboratory). Fructosamine was determined by calorimetric method. Insulin was measured by radioimmunoassay technique, using a specific antibody from Linco Research Inc. (St. Louis, Mo., USA). The lower limit of detection is 5 mU/l cross reactivity with proinsulin less than 1% and intra-assay coefficient of variation below 9% at all levels. Plasma catecholamines from specialized venous blood were measured by the radioenzymatic technique of Peuler Johnson as detailed in Kjelsen et al., Scan. J. Clin. Invest. 1993:42:217-23. Blood pressure and heart rate were measured oscillometrically with an Omega 1000™ Adult/Pediatric Blood Pressure Recorder (INVIVO Research Laboratories Inc., Tulsa Okla., USA).

Experiment [4] shares this test system. As to the kind of experiment: Euglycemic hyperinsulinemic glucose clamp (insulin sensitivity). The class given is in vivo, human. The protocol:
as §2, §3
The euglycemic hyperinsulinemic glucose "clamp" was performed using a modification of the method described by DeFronzo, et al. Am. J. Physiol. 1979:237: E214-23, as previously detailed by Moan, et al., Metabolism, in press. Insulin was infused at a fixed rate of 1 mU/kg/min. […] This index is a ratio of the glucose disposal rate to the mean level of insulin during the last 20 minutes of the glucose clamp multiplied by 100, and is given arbitrary units. Blood for baseline adrenaline and noradrenaline were sampled in duplicate and the results averaged.

Experiment [5] concerns awake rats made hypertensive by ligation of the left renal artery. As to the kind of experiment: Antihypertensive effects in renal hypertensive rats. The format is in vivo, rat. The method, then:
This procedure increases blood pressure by increasing renin production with consequent elevation of AII levels. Compounds are administered orally at 100 mg/kg and/or intravenously via a cannula in the jugular vein at 10 mg/kg. Arterial blood pressure is continuously measured directly through a carotid artery cannula and recorded using a pressure transducer and a polygraph. Blood pressure levels after treatment are compared to pretreatment levels to determine the antihypertensive effects of the compounds (See Table 1).
Compounds listed in Table 2 were tested in the same manner as described for Table 1, except that in the test for antihypertensive effects in renal hypertensive rats, the compounds were administered orally at 30 mg/kg and intravenously at 3 mg/kg.

Experiment [6] deals with patients with severe hypertension. Briefly: Baseline plasma catecholamines (radioenzymatic). The class given is in vivo, human. The method, then: as §2, §3
The euglycemic hyperinsulinemic glucose "clamp" was performed using a modification of the method described by DeFronzo, et al. Am. J. Physiol. 1979:237: E214-23, as previously detailed by Moan, et al., Metabolism, in press. Insulin was infused at a fixed rate of 1 mU/kg/min. This technique for measuring the glucose disposal rate has a day-to-day coefficient of less than 5% percent. […] The steady state levels of insulin varied from one person to another, and as a result the insulin sensitivity index was also calculated. This index is a ratio of the glucose disposal rate to the mean level of insulin during the last 20 minutes of the glucose clamp multiplied by 100, and is given arbitrary units. Blood for baseline adrenaline and noradrenaline were sampled in duplicate and the results averaged.
as §4

Experiment [7] shares this test system. As to the kind of experiment: Fasting glucose, fructosamine and insulin. The class given is in vivo, human. Conditions: after Losartan. The protocol: as §2, §3, §4
Another experiment deals with conscious dogs. As to the kind of experiment: Hypotensive effects in conscious dogs before and after furosemide. The class given is in vivo, dog. The method, then: as §1
A further experiment deals with pressor response to AII. As to the kind of experiment: Inhibition of the pressor response to AII in conscious dogs. The class given is in vivo, dog. The method, then:
as §1

Experiment [8] concerns the target AII receptor (rat adrenal cortical microsomes). As to the kind of experiment: Angiotensin II receptor binding (displacement of 3H-AII). Conditions: 2 nM 3H-AII, 1 hour at room temperature. The protocol:
The hormone angiotensin II (AII) produces numerous biological responses (e.g. vasoconstriction) through stimulation of its receptors on cell membranes. […] The reaction mixture contained rat adrenal cortical microsomes (source of AII receptor) in Tris buffer and 2 nM of ^3 H-AII with or without potential AII antagonist. This mixture was incubated for 1 hour at room temperature and the reaction was subsequently terminated by rapid filtraton and rinsing through glass micro-fibre filter. Receptor-bound ^3 H-AII trapped in filter was quantitiated by scintillation counting.
For orientation: Displacement assays read how much labelled ligand stays bound in the presence of the test substance.

Take `CNCC(=O)N[C@@H](CCCN=C(N)N)C(=O)N[C@H](C(=O)N[C@@H](Cc1ccc(O)cc1)C(=O)N[C@H](C(=O)N[C@@H](Cc1cnc[nH]1)C(=O)N1CCC[C@H]1C(=O)N[C@@H](C)C(=O)O)C(C)C)C(C)C` [Saralasin, [Sar^1, Ala^8] AII]: the “antagonism of the actions of AII” value in experiment [1] (pithed rats) is recorded as “one of the most potent competitive antagonists of the actions of AII”. Also, the agonistic actions entry in [1] (rat, in vivo) is on record as “possesses agonistic actions of its own”. In addition, in [2] (dogs), the “inhibition of renal vasoconstrictor effect of indomethacin” value was “inhibit the renal vasoconstrictor effect” and the “inhibition of renal vasoconstrictor effect of meclofenamate” value is reported as “inhibit the renal vasoconstrictor effect”. Besides, the oral efficacy entry with arterial pressure (oral doses) is “oral doses being ineffective”. In the experiment with arterial pressure (parenteral administration), the “duration of pharmacological effects” value is reported as “relatively short-lasting”. The “effect on arterial pressure” value in the experiment on arterial pressure (pressure dependent on circulating AII) is “lower arterial pressure in mammals and man”. Moreover, in the experiment on arterial pressure (pressure not sustained by AII), the pressor effects entry is “generally elicits pressor effects when the pressure is not sustained by AII”.

On to `NS(=O)(=O)c1cc(C(=O)O)c(NCc2ccco2)cc1Cl` [furosemide], for which the “Plasma renin activity (PRA)” value in the experiment on Plasma renin activity was determined as 19.9±7.2 ng AI/ml/hr.

Regarding `C[C@H](CS)C(=O)N1CCC[C@H]1C(=O)O` [captopril], the “reversal of renal vasoconstrictor effect of indomethacin” value in [2] (dogs with non-hypotensive hemorrhage) was “reverse the renal vasoconstrictor effect of indomethacin”.

`CCCCc1nc(Cl)c(CO)n1Cc1ccc(-c2ccccc2-c2nnn[nH]2)cc1` [Losartan, 2-n-butyl-4-chloro-5-hydroxymethyl-1-[(2'-(1H-tetrazol-5-yl)biphenyl-4-yl)methyl]imidazole] gave a baseline heart rate in experiment [3] (before treatment 65±9, n.s.) of 68±12 beats/min. Besides, the “baseline mean blood pressure” value in [3] (before treatment 132±10, p<0.05) is on record as 119±13 mmHg. The “increase in glucose disposal rate” value in [4] (Losartan vs baseline, p<0.05) is recorded as 27%. In addition, in experiment [4] (after Losartan 50-100 mg oral once a day, average about 6 weeks, baseline 6.2±2.6, p<0.05), the glucose disposal rate came to 7.9±2.6 mg/kg×min. Besides, the “average plasma insulin level during second clamp” value in [4] (insulin infused 1 mU/kg/min, end of Losartan monotherapy, first clamp 85±11) is 80±7 mU/l. For the same compound, the “Antihypertensive Effects in Renal Hypertensive Rats, Intravenous Activity” value in experiment [5] (Table 1, 10 mg/kg) was “+ (Significant decrease in blood pressure at 10 mg/kg or less)”. The “Antihypertensive Effects in Renal Hypertensive Rats, Oral Activity” value in experiment [5] (Table 1, 100 mg/kg) is “+ (Significant decrease in blood pressure at 100 mg/kg or less)”. Moreover, in experiment [6] (Losartan vs before treatment, p<0.05), the “decrease in baseline plasma noradrenaline” value is recorded as 40%. For the same compound, the plasma adrenaline in experiment [6] (after Losartan, before treatment 0.23±0.10, n.s.) is 0.22 ± 0.11 nmol/L. The baseline plasma noradrenaline in experiment [6] (after Losartan, before treatment 1.87±0.53, p<0.05) amounted to 1.11 ± 0.13 nmol/L. The compound also registered a fasting glucose in experiment [7] (baseline 5.0±0.3, non-significant) of 4.8 ± 0.1 mmol/L. In experiment [7] (baseline 12±3, unchanged), the fasting serum insulin came out at 12±2 mU/l. Moreover, in [7] (baseline 227±18, non-significant), the fructosamine came to 217 ± 11 µmol/L.

For `CCCCc1nc(Cl)c(CO)n1Cc1ccc(-c2ccccc2-c2nn[nH]n2)cc1` [2-butyl-4-chloro-1-[2'-(1H-tetrazol-5-yl)biphenyl-4-yl)methyl]-5-hydroxymethylimidazole sodium salt], the blood pressure lowering entry in the experiment with conscious dogs (conscious dogs after furosemide 10 mg/kg im at 18 and 2 hours before, cumulative iv, same doses) is “significant decrease in blood pressure in a dose-dependent manner”; in the experiment on conscious dogs (normotensive conscious dogs, before furosemide, cumulative iv 0.3 to 3 mg/kg, n=4), “did not lower blood pressure”. Also, the “inhibition of pressor response to AII” value was “inhibited the pressor response to AII at the two higher doses” in the experiment on pressor response to AII (after furosemide, cumulative iv, same doses) and “effective in inhibiting the pressor response to AII” in the experiment with pressor response to AII (before furosemide, AII 0.1 μg/kg iv, 10 min post dose, cumulative iv 0.3 to 3 mg/kg).

As for `CCCCc1nc(Cl)c(C(=O)O)n1Cc1ccc(-c2ccccc2-c2nn[nH]n2)cc1` [EXP-3174], the “Antihypertensive Effects in Renal Hypertensive Rats, Intravenous Activity” value in experiment [5] (Table 2, 3 mg/kg) is on record as “+ (Significant decrease in blood pressure at 3.0 mg/kg or less)”. Further, the “Antihypertensive Effects in Renal Hypertensive Rats, Oral Activity” value in experiment [5] (Table 2, 30 mg/kg) is “+ (Significant decrease in blood pressure at 30 mg/kg or less)”. In [8], this compound registered an IC50 of 11 nM.

For orientation: IC50 means the concentration needed to halve the response being measured. The low end stands for higher potency, the high end for lower potency.
